The molecules below were run against T1, Recombinant human ASK1 kinase (Homo sapiens, UniProt Q99683) (assay: ASK1 kinase HTRF assay (HTRF KinEASE-STK, phosphorylation of biotinylated peptide substrate)). Conditions: 3 nM ASK1 kinase, 1 uM STK-substrate-biotin, HTRF detection; read-out: EC50.
T1 construct: purchased Invitrogen Inc
T1 sequence (Q99683 1-1374): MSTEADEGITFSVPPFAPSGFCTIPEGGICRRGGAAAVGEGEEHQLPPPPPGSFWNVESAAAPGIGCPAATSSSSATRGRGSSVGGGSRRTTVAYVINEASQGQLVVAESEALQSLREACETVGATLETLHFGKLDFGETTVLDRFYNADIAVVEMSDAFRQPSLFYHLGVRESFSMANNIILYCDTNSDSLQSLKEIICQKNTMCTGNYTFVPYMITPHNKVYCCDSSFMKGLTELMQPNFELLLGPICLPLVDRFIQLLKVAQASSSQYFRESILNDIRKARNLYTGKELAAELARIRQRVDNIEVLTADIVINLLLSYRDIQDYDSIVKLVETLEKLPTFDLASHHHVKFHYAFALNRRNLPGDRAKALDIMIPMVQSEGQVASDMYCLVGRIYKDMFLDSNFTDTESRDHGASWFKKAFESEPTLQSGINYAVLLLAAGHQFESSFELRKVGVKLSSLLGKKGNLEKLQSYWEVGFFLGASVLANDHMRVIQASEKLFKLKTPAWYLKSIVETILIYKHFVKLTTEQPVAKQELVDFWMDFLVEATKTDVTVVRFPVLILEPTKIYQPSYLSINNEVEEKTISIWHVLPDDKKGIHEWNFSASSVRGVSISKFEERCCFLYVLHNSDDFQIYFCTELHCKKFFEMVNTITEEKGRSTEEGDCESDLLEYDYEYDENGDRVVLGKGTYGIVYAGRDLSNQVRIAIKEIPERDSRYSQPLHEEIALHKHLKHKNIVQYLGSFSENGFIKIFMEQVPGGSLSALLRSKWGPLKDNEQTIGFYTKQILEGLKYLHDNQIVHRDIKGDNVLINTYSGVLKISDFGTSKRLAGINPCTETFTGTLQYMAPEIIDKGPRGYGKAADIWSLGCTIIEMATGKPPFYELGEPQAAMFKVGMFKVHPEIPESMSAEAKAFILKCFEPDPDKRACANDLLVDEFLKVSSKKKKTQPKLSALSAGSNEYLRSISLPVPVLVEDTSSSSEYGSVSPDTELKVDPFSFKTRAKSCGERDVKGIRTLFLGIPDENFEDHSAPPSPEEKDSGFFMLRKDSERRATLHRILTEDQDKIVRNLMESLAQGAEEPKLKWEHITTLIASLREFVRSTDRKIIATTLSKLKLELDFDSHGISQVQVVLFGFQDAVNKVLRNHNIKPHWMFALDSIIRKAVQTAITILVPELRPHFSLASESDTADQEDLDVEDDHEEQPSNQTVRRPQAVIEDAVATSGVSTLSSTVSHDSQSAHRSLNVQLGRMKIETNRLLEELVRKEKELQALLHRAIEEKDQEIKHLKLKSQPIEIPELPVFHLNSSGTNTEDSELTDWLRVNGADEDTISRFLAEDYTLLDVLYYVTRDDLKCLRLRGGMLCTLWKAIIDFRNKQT
Format: biochemical
Summary of the method: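 HTRF KinEASE-STK read-out of biotinylated peptide phosphorylation. Compound incubated with 3 nM ASK1 and 1 uM STK-substrate-biotin in kinase buffer containing 5 mM MgCl2 and 1 mM DTT.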

**Q.** For CC(C)n1cnnc1-c1cccc(N2CCN(c3ccc(N4CCNCC4)cn3)C2=O)n1 [Compound V-01, 1-(6-(4-Isopropyl-4H-1,2,4-triazol-3-yl)pyridin-2-yl)-3-(5-(piperazin-1-yl)pyridin-2-yl)imidazolidin-2-one], which EC50 is on record?
**A.** Its EC50 is under 50 nM.

**Q.** Which EC50 does the source give for CC(C)n1cnnc1-c1cccc(N2CCN(c3ccc(F)cn3)C2=O)n1 [Compound V-02] here?
**A.** Its EC50 is under 50 nM.

**Q.** With C[C@H](CO)n1cnnc1-c1cccc(N2CCN(c3ccc(F)cn3)C2=O)n1 [Compound V-03] as the molecule, how does the EC50 read?
**A.** Its EC50 is under 50 nM.

**Q.** With C[C@H](CO)n1cnnc1-c1cccc(N2CCN(c3cc4ccccc4cn3)C2=O)n1 [Compound V-04] as the molecule, how does the EC50 read?
**A.** Its EC50 is under 50 nM.

**Q.** Which EC50 does the source give for CC(C)n1cnnc1-c1cccc(N2CCN(c3ccc(-c4ccccc4)cn3)C2=O)n1 [Compound V-05] here?
**A.** Its EC50 is under 50 nM.

**Q.** How did the EC50 turn out when CC(C)n1cnnc1-c1cccc(N2CCN(c3ccc(-c4ccc(F)cc4)cn3)C2=O)n1 [Compound V-06] was run?
**A.** Its EC50 is under 50 nM.

**Q.** Which EC50 does the source give for CC(C)n1cnnc1-c1cccc(N2CCN(c3ccc(-c4ccncc4)cn3)C2=O)n1 [Compound V-07] here?
**A.** The EC50 was under 50 nM.

**Q.** With C[C@H](CO)n1cnnc1-c1cccc(N2CCN(c3ccc(-c4ccccc4)cn3)C2=O)n1 [Compound V-08] as the molecule, how does the EC50 read?
**A.** The EC50 was under 50 nM.

**Q.** CC(C)n1cnnc1-c1cccc(N2CCN(c3ccc(N4CCOCC4)cc3)C2=O)n1 [Compound V-11] was tested. Which EC50 did it give?
**A.** The EC50 was under 50 nM.

**Q.** For CC(C)n1cnnc1-c1cccc(N2CCN(c3ccc(N4CCOCC4)cn3)C2=O)n1 [Compound V-12], which EC50 is on record?
**A.** Its EC50 is under 50 nM.

**Q.** Which EC50 does the source give for CC(C)n1cnnc1-c1cccc(N2CCN(c3ccc(N4CCOC[C@@H]4C)cn3)C2=O)n1 [Compound V-14] here?
**A.** Its EC50 is under 50 nM.

**Q.** For CC(C)n1cnnc1-c1cccc(N2CCN(c3ccc(N4CC5CCC(C4)O5)cn3)C2=O)n1 [Compound V-15], which EC50 is on record?
**A.** The EC50 was under 50 nM.

**Q.** CC1CN(c2ccc(N3CCN(c4cccc(-c5nncn5C(C)C)n4)C3=O)nc2)CC(C)O1 (centres unmarked) [Compound V-16] was tested. Which EC50 did it give?
**A.** The EC50 was under 50 nM.

**Q.** Which EC50 does the source give for CC1CN(c2ccc(N3CCN(c4cccc(-c5nncn5C(C)C)n4)C3=O)nc2)CCO1 (centres unmarked) [Compound V-17] here?
**A.** The EC50 was under 50 nM.

**Q.** C[C@H](CO)n1cnnc1-c1cccc(N2CCN(c3ccc(N4CCOCC4)cn3)C2=O)n1 [Compound V-18] was tested. Which EC50 did it give?
**A.** The EC50 was under 50 nM.

**Q.** Which EC50 does the source give for CC(=O)OC[C@@H](C)n1cnnc1-c1cccc(N2CCN(c3ccc(N4CCOCC4)cn3)C2=O)n1 [Compound V-19] here?
**A.** Its EC50 is 50 to 500 nM.

**Q.** C[C@H](CO)n1cnnc1-c1cccc(N2CCN(c3ccc(N4CCNCC4)cn3)C2=O)n1 [Compound V-22] was tested. Which EC50 did it give?
**A.** The EC50 was under 50 nM.

**Q.** Which EC50 does the source give for C[C@H](CO)n1cnnc1-c1cccc(N2CCN(c3ccc(C(=O)N4CCCCC4)cn3)C2=O)n1 [Compound V-23] here?
**A.** Its EC50 is under 50 nM.

**Q.** How did the EC50 turn out when CC(C)n1cnnc1-c1cccc(N2CCN(c3ccc(C(=O)N4CCOCC4)cn3)C2=O)n1 [Compound V-25] was run?
**A.** Its EC50 is under 50 nM.

**Q.** Which EC50 does the source give for C[C@H](CO)n1cnnc1-c1cccc(N2CCN(c3ccc(C(=O)N4CCOCC4)cn3)C2=O)n1 [Compound V-26] here?
**A.** Its EC50 is under 50 nM.

**Q.** For C[C@H](CO)n1cnnc1-c1cccc(N2CCN(c3ccc(C(=O)N4CCNCC4)cn3)C2=O)n1 [Compound V-27], which EC50 is on record?
**A.** Its EC50 is under 50 nM.

**Q.** With Cc1ccc(N(C)C(=O)Nc2cccc(-c3nncn3C(C)C)n2)c(F)c1 [II-01, 1-(2-Fluoro-4-methylphenyl)-3-(6-(4-isopropyl-4H-1,2,4-triazol-3-yl)pyridin-2-yl)-1-methylurea] as the molecule, how does the EC50 read?
**A.** The EC50 was 500 to 5000 nM.

**Q.** How did the EC50 turn out when Cc1ccc(-n2ccn(-c3cccc(-c4nncn4C(C)C)n3)c2=O)c(F)c1 [III-01, 3-(2-Fluoro-4-methylphenyl)-1-(6-(4-isopropyl-4H-1,2,4-triazol-3-yl)pyridin-2-yl)-1H-imidazol-2(3H)-one] was run?
**A.** The EC50 was 50 to 500 nM.

**Q.** Which EC50 does the source give for CC(C)n1cnnc1-c1cccc(-n2ccn(-c3ccc(C(=O)N4CCCCC4)cn3)c2=O)n1 [III-02, 1-(6-(4-Isopropyl-4H-1,2,4-triazol-3-yl)pyridin-2-yl)-3-(5-(piperidine-1-carbonyl)pyridin-2-yl)-1H-imidazol-2(3H)-one] here?
**A.** The EC50 was under 50 nM.

**Q.** How did the EC50 turn out when CC(C)n1cnnc1-c1cccc(-n2ccn(-c3ccc(N4CCOCC4)cn3)c2=O)n1 [III-03, 1-(6-(4-Isopropyl-4H-1,2,4-triazol-3-yl)pyridin-2-yl)-3-(5-morpholinopyridin-2-yl)-1H-imidazol-2(3H)-one] was run?
**A.** The EC50 was under 50 nM.

**Q.** How did the EC50 turn out when CC(C)n1cnnc1-c1cccc(-n2ccn(-c3ccc(N4CCNCC4)cn3)c2=O)n1 [III-04, 1-(6-(4-Isopropyl-4H-1,2,4-triazol-3-yl)pyridin-2-yl)-3-(5-(piperazin-1-yl)pyridin-2-yl)-1H-imidazol-2(3H)-one] was run?
**A.** The EC50 was under 50 nM.

**Q.** How did the EC50 turn out when Cc1ccc(-n2ccn(-c3cccc(-c4nncn4C(C)C)n3)c2=O)nc1 [III-05] was run?
**A.** The EC50 was under 50 nM.

**Q.** How did the EC50 turn out when CC(C)n1cnnc1-c1cccc(-n2ccn(-c3ccc(-c4ccccc4)cn3)c2=O)n1 [III-06] was run?
**A.** Its EC50 is under 50 nM.

**Q.** C[C@H](CO)n1cnnc1-c1cccc(-n2ccn(-c3ccc(-c4ccccc4)cn3)c2=O)n1 [III-07] was tested. Which EC50 did it give?
**A.** Its EC50 is under 50 nM.

**Q.** C[C@H](CO)n1cnnc1-c1cccc(-n2ccn(-c3cc(-c4ccccc4)ccn3)c2=O)n1 [III-08] was tested. Which EC50 did it give?
**A.** Its EC50 is 50 to 500 nM.

**Q.** With C[C@H](CO)n1cnnc1-c1cccc(-n2ccn(-c3ccc(N4CCOCC4)cn3)c2=O)n1 [III-10] as the molecule, how does the EC50 read?
**A.** The EC50 was under 50 nM.

**Q.** How did the EC50 turn out when CC(C)n1cnnc1-c1cccc(NC(=S)Nc2ccccn2)n1 [VI-01, 1-(6-(4-Isopropyl-4H-1,2,4-triazol-3-yl)pyridin-2-yl)-3-(pyridin-2-yl)thiourea] was run?
**A.** Its EC50 is 50 to 500 nM.

Reference: patent US11427556B2, “Urea derivatives as inhibitors of ASK1” (Hepagene Therapeutics (HK) Limited, priority 2017, dated 2022)
